From patent US20240335464A1, “ADMINISTRATION OF STING AGONIST, CHECKPOINT INHIBITORS, AND RADIATION” (Takeda Pharmaceutical Company Limited, priority 2020, published 2024)

Tests used:
[1] = tested on: CT26 murine colorectal carcinoma tumor; experiment: Study 4: CT26 subcutaneous tumor model, anti-tumor efficacy; assay type: in vivo, female Balb/c mice; conditions: for GRI (%) Day 11: vs vehicle
Protocol: Study 4: CT26 is a murine colorectal carcinoma cell line. Eight-week-old female Balb/c mice (Jackson Labs, Maine) were inoculated subcutaneously with 0.2×10^6 CT26 tumor cells and monitored for tumor growth. Once the tumors reached an average of 100-125 mm^3, animals were irradiated with either mock irradiation or 8 Gy of focal beam irradiation (Study Day 0). Animals were then dosed intravenously with either vehicle (PBS) or 0.25 mg/kg of Compound No. 14 on a QW×3 schedule beginning on Study Day 1. Anti-mPD-1 antibody (clone RMP1-14, BioXCell) treatment was administered intraperitoneally twice weekly starting on Study Day 1 with a concentration of 10 mg/kg for 3 weeks. Animals were monitored for tumor volumes and body weight changes twice weekly throughout the study once they reached their humane endpoint. GRI was calculated on the last day with animals remaining in the vehicle group (Study Day 11).
(§1) Study 4: A 5 mg/mL stock solution of Compound No. 14 was formulated in PBS at the final concentration of 0.0667 mg/mL and administered intravenously (IV). Final doses received were 0.25 mg/kg. […] Compound No. 14 was administered on a QW schedule for 3 doses in single agent treatment group and in combination treatment groups beginning on Day 1. Dose formulation of Compound No. 14 was prepared once and utilized for dosing on each treatment day.
Anti-mPD-1 or isotype control was administered concurrent with Compound No. 14 or vehicle control on a BIW schedule for 3 doses in single agent treatment groups and in combination treatment groups.
(§2) Studies 4 and 5: Radiation treatment for Studies 4 and 5 were performed using focal beam radiation with volumentric image guidance from computer tomography scans on the SmART (Small animal image-guided radiotherapy) platform (Precision XRay Inc., North Branford, CT). Animals received 4.52 Gy/min of radiation and approximately 1.8 min was needed to reach 8 Gy dose delivery (Study 4) or […] was needed to reach 16 Gy dose delivery (Study 5). Animals were anesthetized during imaging and radiation treatment using 1-2% isoflurane.
(§3) Growth Rate Inhibition: The differences in the tumor growth trends over time between pairs of treatment groups were assessed by fitting each animal's data to a simple exponential growth model and comparing the mean growth rates of the two groups, as described in more detail below. The difference in the growth rates was summarized by the GRI, which is the reduction in growth rate experienced by the treatment group relative to that of the reference group, expressed as a fraction of the vehicle growth rate.
(§4) μT and μC are the mean tumor growth rates for the treatment and reference groups, respectively. μV is the mean tumor growth rate for the vehicle group, which in most cases is the same as the reference group.
(§5) A GRI greater than 100% is interpreted as tumor regression when the vehicle group is the same as the reference group. A negative value of the GRI means that the tumors in the treatment group grew faster than the tumors in the reference group. Statistical significance was determined using an unpaired t-test.
(§6) Tumor Growth Rate Computation: Low tumor volumes can cause problems with the data analysis, so all measurements below 25 cubic mm (including 0 values) were excluded from the analysis. After this exclusion step, the tumor volume was assumed to follow an exponential growth model. More specifically, for a given animal and treatment group,
(§7) where Vi is the tumor volume at the i^th time point. Here, a is the initial log volume, b is the tumor growth rate, and t1 is the measurement time in days. εi is the residual error term, which was assumed to be uncorrelated and drawn from a normal distribution.
This model was fit separately for each animal within each treatment group. If an animal was sacrificed or died early, but at least two unique time points were measured (including baseline), then the data up to that point was used to estimate the growth rate. […]

[2] = tested on: B16F10 ova melanoma tumor; experiment: Study 5: B16F10-Ova subcutaneous tumor model, anti-tumor efficacy; assay type: in vivo, female C57Bl/6 mice; conditions: for GRI (%) (Day 10): vs vehicle
Protocol: Study 5: B16F10-Ova is a cell line derived from B16F10 melanoma that expresses chicken ovalbumin. Seven-week-old female C57Bl/6 mice (Jackson Labs, Maine) were inoculated subcutaneously with 0.04×10^6 B16F10 ova tumor cells and monitored for tumor growth. Once the tumors reached an average of 100-250 mm^3, animals were irradiated with either mock irradiation or 16 Gy of focal beam irradiation (Study Day 0). Animals were then dosed intravenously with either vehicle (PBS) or 0.25 mg/kg of Compound No. 14 on a Q3Dx3 scheduled beginning on Study Day 1. Animals were monitored for tumor volumes and body weight changes twice weekly throughout the study once they reached their humane endpoint. GRI was calculated on the last day with animals remaining in the vehicle group (Study Day 10).
as §1, with “5:” for “4:”, “Q3D” for “QW”
as §2, §3, §4, §5, §6, §7
This model was fit separately for each animal within each treatment group. If an animal was sacrificed or died early, but at least two unique time points were measured (including baseline), then the data up to that point was used to estimate the growth rate. If the animal had measurements at less than two time points, then the animal was automatically excluded from the analysis.
In rare cases, the estimated growth rate for one or more animals might be very different from the other animals within the same group. […]

[3] = TG02 Compound No. 14 0.25 mg/kg QWx3 IV, single agent
[4] = TG05 Compound No.14 0.25 mg/kg QWx3 IV + Radiation 8 Gy, through Day 11
[5] = TG02 Compound No.14 0.25 mg/kg Q3Dx3 IV, single agent
[6] = TG04 Compound No.14 0.25 mg/kg Q3Dx3 IV + radiation 16 Gy, through Day 10

`Nc1ncnc2c1ncn2[C@@H]1O[C@@H]2COP(=O)(S)O[C@@H]3[C@H](O)[C@@H](COP(=O)(S)O[C@H]2[C@H]1F)O[C@H]3n1cc(F)c2c(=O)[nH]cnc21` (stereo partly drawn) [Compound No. 14] was tested, and the “Number of Animals Removed” value [1, 3] was 0, the “GRI (%) Day 11” value [1, 3] was 13% and the “Number of Animals Removed” value ([1]; TG05 Compound No. 14 0.25 mg/kg QWx3 IV + Radiation 8 Gy) was 0. The “GRI (%) Day 11” value ([1]; TG05 Compound No. 14 0.25 mg/kg QWx3 IV + Radiation 8 Gy (Day 0)) was 88%, the “Combination Assessment” value [1, 4] was “Additive” and the “Synergy Score %” value [1, 4] was −12%. The “Number of Animals Removed” value [2, 5] was 4, the “GRI (%) (Day 10)” value [2, 5] was 11% and the “Number of Animals Removed” value ([2]; TG04 Compound No.14 0.25 mg/kg Q3Dx3 IV + radiation 16 Gy) was 0. The “GRI (%) (Day 10)” value ([2]; TG04 Compound No.14 0.25 mg/kg Q3Dx3 IV + radiation 16 Gy (Day 0)) was 67%, the “Combination Assessment” value [2, 6] was “Additive” and the “Synergy Score %” value [2, 6] was −21%.
